According to ChEMBL document CHEMBL4411262, “Ulleungdin, a Lasso Peptide with Cancer Cell Migration Inhibitory Activity Discovered by the Genome Mining Approach” (J Nat Prod, 2018):
Active and inactive are the calls of the source. The rule behind the calls is not given here. Where a SMILES comes first, the peptide text is derived from it. Bridges are numbered along the chain shown (N, C = ends).

Assays:
A549 [1] = experiment: Antiinvasive activity against human A549 cells assessed as inhibition of cell invasion at 50 uM after 24 hrs by crystal violet staining based transwell assay relative to control; type: functional; settings: A549, 24 h
A549 [2] = experiment: Effect on MMP9 expression in human A549 cells up to 50 uM after 24 hrs by Western blot analysis; type: functional, cell-based
[3] = biological target: Focal adhesion kinase 1 (Homo sapiens) (UniProt Q05397); experiment: Effect on FAK phosphorylation in human A549 cells up to 50 uM after 24 hrs by Western blot analysis; type: cell-based
Sequence of Focal adhesion kinase 1 (Homo sapiens) (Q05397 2-1052 limits assumed): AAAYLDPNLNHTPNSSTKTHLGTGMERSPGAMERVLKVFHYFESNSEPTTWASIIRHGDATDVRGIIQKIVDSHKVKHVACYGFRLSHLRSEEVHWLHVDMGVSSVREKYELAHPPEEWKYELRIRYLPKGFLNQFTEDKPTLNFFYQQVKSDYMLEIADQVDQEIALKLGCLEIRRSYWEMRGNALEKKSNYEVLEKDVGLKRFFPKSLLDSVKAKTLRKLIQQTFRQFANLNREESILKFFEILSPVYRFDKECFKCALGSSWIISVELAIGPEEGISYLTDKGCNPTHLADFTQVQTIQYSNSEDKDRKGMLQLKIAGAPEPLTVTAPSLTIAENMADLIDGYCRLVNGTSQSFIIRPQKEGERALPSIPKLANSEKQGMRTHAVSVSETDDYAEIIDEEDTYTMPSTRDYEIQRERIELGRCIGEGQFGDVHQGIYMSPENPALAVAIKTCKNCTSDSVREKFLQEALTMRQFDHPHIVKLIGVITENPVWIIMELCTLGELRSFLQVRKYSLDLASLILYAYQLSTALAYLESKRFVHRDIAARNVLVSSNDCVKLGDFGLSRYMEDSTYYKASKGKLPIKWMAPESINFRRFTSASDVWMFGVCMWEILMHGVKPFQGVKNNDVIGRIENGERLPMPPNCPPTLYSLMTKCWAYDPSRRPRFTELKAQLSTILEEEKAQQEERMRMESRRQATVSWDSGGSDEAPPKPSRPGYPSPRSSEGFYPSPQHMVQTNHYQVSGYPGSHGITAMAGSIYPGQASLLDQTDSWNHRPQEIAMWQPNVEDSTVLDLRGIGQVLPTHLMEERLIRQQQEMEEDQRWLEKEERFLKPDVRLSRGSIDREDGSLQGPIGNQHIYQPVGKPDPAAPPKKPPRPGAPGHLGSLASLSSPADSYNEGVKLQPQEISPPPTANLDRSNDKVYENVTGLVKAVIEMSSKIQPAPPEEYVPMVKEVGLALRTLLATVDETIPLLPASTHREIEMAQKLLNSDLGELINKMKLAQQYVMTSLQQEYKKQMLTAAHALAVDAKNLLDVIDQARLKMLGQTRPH

[4] = biological target: MAP kinase p38 (Homo sapiens) (UniProt O15264+Q15759+Q16539+P53778); experiment: Effect on p38 phosphorylation in human A549 cells up to 50 uM after 24 hrs by Western blot analysis; type: cell-based
[5] = biological target: Matrix metalloproteinase-9 (Homo sapiens) (UniProt P14780); experiment: Effect on MMP9 phosphorylation in human A549 cells up to 50 uM after 24 hrs by Western blot analysis; type: cell-based
Sequence of Matrix metalloproteinase-9 (Homo sapiens) (P14780 whole entry): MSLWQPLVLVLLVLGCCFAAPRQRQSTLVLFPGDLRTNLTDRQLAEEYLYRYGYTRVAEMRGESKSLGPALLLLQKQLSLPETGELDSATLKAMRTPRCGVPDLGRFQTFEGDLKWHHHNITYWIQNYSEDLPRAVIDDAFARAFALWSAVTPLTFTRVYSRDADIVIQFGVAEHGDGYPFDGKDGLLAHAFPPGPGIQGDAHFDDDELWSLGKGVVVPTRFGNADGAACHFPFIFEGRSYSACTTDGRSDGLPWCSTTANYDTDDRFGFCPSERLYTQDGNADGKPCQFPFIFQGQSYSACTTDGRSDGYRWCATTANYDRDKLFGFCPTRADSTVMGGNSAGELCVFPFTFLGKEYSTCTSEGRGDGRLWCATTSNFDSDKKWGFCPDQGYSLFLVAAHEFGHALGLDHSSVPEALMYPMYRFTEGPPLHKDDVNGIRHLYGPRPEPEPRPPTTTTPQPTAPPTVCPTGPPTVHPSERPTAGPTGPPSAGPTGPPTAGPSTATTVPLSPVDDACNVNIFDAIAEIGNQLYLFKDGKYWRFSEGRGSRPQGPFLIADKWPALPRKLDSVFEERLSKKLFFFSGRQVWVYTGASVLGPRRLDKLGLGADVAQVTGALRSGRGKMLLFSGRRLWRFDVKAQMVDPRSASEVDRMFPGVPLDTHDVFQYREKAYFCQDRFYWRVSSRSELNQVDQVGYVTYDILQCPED

A549 [6] = experiment: Cytotoxicity against human A549 cells assessed as effect on cell viability up to 100 uM after 24 hrs by EZ-Cytox cell viability assay; type: cell-based; settings: a549, 24 h
A549 [7] = experiment: Effect on JNK expression in human A549 cells up to 50 uM after 24 hrs by Western blot analysis; type: functional, cell-based
A549 [8] = experiment: Effect on ERK expression in human A549 cells up to 50 uM after 24 hrs by Western blot analysis; type: functional, cell-based
A549 [9] = experiment: Effect on MMP2 expression in human A549 cells up to 50 uM after 24 hrs by Western blot analysis; type: functional, cell-based
A549 [10] = experiment: Antimigratory activity against human A549 cells assessed as reduction in cell motility measured at 15 mins interval for 12 hrs by Holomonitor M4 time-lapse cytometric method; type: functional, cell-based
A549 [11] = experiment: Effect on paxillin expression in human A549 cells up to 50 uM after 24 hrs by Western blot analysis; type: functional, cell-based
A549 [12] = experiment: Effect on ERK phosphorylation in human A549 cells up to 50 uM after 24 hrs by Western blot analysis; type: cell-based
A549 [13] = experiment: Effect on p38 expression in human A549 cells up to 50 uM after 24 hrs by Western blot analysis; type: functional, cell-based
Paxillin (Homo sapiens) = Paxillin (Homo sapiens) (UniProt P49023); experiment: Effect on paxillin phosphorylation in human A549 cells up to 50 uM after 24 hrs by Western blot analysis; type: cell-based
Sequence of Paxillin (Homo sapiens) (P49023 whole entry): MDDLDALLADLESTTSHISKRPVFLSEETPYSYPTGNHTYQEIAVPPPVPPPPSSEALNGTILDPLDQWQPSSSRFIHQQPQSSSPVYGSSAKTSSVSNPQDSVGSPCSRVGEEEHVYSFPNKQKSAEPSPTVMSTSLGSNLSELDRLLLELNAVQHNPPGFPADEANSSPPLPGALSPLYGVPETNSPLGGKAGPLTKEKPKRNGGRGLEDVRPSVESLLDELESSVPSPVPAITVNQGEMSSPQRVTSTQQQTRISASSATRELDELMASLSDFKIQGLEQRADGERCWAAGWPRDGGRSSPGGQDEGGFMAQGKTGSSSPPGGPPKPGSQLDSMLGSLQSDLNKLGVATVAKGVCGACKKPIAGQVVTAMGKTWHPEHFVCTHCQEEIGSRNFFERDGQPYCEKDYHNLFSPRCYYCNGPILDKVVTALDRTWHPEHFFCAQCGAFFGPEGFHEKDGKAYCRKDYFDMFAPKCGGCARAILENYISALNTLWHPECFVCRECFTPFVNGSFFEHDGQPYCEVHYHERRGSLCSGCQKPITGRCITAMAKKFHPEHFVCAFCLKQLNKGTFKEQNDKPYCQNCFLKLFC

A549 [14] = experiment: Antimigratory activity against human A549 cells assessed as reduction in cell migration measured at 15 mins interval for 12 hrs by Holomonitor M4 time-lapse cytometric method; type: functional, cell-based
A549 [15] = experiment: Effect on FAK expression in human A549 cells up to 50 uM after 24 hrs by Western blot analysis; type: functional, cell-based
[16] = biological target: 72 kDa type IV collagenase (Homo sapiens) (UniProt P08253); experiment: Effect on MMP2 phosphorylation in human A549 cells up to 50 uM after 24 hrs by Western blot analysis; type: cell-based
Sequence of 72 kDa type IV collagenase (Homo sapiens) (P08253 110-660 limits assumed): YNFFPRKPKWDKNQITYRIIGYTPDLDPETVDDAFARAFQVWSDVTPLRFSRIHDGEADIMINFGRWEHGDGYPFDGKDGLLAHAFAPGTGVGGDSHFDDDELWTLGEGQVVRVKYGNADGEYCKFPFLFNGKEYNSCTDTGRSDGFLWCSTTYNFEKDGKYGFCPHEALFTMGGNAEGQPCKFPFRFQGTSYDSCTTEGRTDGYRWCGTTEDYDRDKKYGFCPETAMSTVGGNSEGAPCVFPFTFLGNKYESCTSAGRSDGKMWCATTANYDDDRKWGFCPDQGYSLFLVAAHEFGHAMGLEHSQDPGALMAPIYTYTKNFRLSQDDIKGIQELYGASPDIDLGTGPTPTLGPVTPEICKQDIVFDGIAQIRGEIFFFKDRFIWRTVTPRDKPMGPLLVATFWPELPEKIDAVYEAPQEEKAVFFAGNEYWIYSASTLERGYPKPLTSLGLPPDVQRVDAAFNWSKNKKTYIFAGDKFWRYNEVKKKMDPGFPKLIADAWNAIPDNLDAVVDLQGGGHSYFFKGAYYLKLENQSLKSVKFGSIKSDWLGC

[17] = biological target: c-Jun N-terminal kinase, JNK (Homo sapiens) (UniProt P45983+P53779+P45984); experiment: Effect on JNK phosphorylation in human A549 cells up to 50 uM after 24 hrs by Western blot analysis; type: cell-based

| Compound | inhibition at 50 µM (A549 [1]) | Activity (A549 [2]) | Activity [3] | Activity [4] | Activity [5] | Activity (A549 [6]) | Activity (A549 [7]) | Activity (A549 [8]) | Activity (A549 [9]) | Activity (A549 [10]) | Activity (A549 [11]) | Activity (A549 [12]) | Activity (A549 [13]) | Activity (Paxillin (Homo sapiens)) | Activity (A549 [14]) | Activity (A549 [15]) | Activity [16] | Activity [17] |
| --- | --- | --- | --- | --- | --- | --- | --- | --- | --- | --- | --- | --- | --- | --- | --- | --- | --- | --- |
| CC[C@H](C)[C@@H]1NC(=O)[C@@H]2CCCN2C(=O)[C@H](CCCCN)NC(=O)[C@H](CO)NC(=O)CNC(=O)[C@H](Cc2ccccc2)NC(=O)CNC(=O)C[C@@H](C(=O)N[C@@H](CO)C(=O)N[C@@H](Cc2ccccc2)C(=O)NCC(=O)N[C@@H](CC(C)C)C(=O)N[C@@H](CO)C(=O)N[C@@H](Cc2c[nH]c3ccccc23)C(=O)N[C@@H](CC(C)C)C(=O)O)NC1=O [SUNGSANPIN] (GFGSKPIDSFGLSWL-OH; lactam N-8) | 53% |  |  |  |  |  |  |  |  |  |  |  |  |  |  |  |  |  |
| CC[C@H](C)[C@@H]1NC(=O)[C@H](Cc2ccccc2)NC(=O)CNC(=O)C[C@@H](C(=O)N[C@H](C(=O)N[C@@H](Cc2ccccc2)C(=O)NCC(=O)N[C@@H](Cc2cnc[nH]2)C(=O)N[C@@H](Cc2ccc(O)cc2)C(=O)NCC(=O)NCC(=O)O)[C@@H](C)CC)NC(=O)[C@H](CCCCN)NC(=O)CNC(=O)[C@H](Cc2c[nH]c3ccccc23)NC(=O)CNC1=O (GFIGWGKDIFGHYGG-OH; lactam N-8) | 48.4% | inactive | inactive | inactive | inactive | Non-Toxic | inactive | inactive | inactive | Dose-dependent effect | inactive | inactive | inactive | inactive | Dose-dependent effect | inactive | inactive | inactive |
| CC(C)C[C@H](NC(=O)CNC(=O)[C@H](Cc1ccccc1)NC(=O)[C@H](CO)NC(=O)[C@@H]1CC(=O)NCC(=O)N[C@@H](Cc2ccccc2)C(=O)NCC(=O)N[C@@H](CO)C(=O)N[C@@H](CCCCN)C(=O)N2CCC[C@H]2C(=O)N[C@@H](CC(C)C)C(=O)N1)C(=O)N[C@@H](CC(N)=O)C(=O)N[C@@H](Cc1ccccc1)C(=O)N[C@@H](Cc1ccccc1)C(=O)O (GFGSKPLDSFGLNFF-OH; lactam N-8) | 56% |  |  |  |  |  |  |  |  |  |  |  |  |  |  |  |  |  |
